Assay results published in patent EP3807270B1, “NOVEL HETEROARYL HETEROCYCLYL COMPOUNDS FOR THE TREATMENT OF AUTOIMMUNE DISEASE” (F. Hoffmann-La Roche AG, priority 2018, dated 2019).

Key:
[1] = molecular target: T1, hERG channel (Homo sapiens, UniProt Q12809); assay: hERG channel inhibition assay (patch-clamp, CHO hERG cells); type: cell-based; details: for IC50 / IC20: CHO hERG cells, whole-cell patch-clamp; for IC20: human, CHO cells stably expressing hERG; for hERG IC20 / TLR7 IC50 / hERG IC20 / TLR9 IC50: safety ratio; for hERG IC20 / TLR7 IC50: TLR7 IC50 of ER compounds from Table 1; for hERG IC20 / TLR9 IC50: TLR9 IC50 of ER compounds from Table 1
T1 construct: expressed in transfected cells; host or cells: CHO (Chinese hamster ovary)
T1 sequence (Q12809 whole entry): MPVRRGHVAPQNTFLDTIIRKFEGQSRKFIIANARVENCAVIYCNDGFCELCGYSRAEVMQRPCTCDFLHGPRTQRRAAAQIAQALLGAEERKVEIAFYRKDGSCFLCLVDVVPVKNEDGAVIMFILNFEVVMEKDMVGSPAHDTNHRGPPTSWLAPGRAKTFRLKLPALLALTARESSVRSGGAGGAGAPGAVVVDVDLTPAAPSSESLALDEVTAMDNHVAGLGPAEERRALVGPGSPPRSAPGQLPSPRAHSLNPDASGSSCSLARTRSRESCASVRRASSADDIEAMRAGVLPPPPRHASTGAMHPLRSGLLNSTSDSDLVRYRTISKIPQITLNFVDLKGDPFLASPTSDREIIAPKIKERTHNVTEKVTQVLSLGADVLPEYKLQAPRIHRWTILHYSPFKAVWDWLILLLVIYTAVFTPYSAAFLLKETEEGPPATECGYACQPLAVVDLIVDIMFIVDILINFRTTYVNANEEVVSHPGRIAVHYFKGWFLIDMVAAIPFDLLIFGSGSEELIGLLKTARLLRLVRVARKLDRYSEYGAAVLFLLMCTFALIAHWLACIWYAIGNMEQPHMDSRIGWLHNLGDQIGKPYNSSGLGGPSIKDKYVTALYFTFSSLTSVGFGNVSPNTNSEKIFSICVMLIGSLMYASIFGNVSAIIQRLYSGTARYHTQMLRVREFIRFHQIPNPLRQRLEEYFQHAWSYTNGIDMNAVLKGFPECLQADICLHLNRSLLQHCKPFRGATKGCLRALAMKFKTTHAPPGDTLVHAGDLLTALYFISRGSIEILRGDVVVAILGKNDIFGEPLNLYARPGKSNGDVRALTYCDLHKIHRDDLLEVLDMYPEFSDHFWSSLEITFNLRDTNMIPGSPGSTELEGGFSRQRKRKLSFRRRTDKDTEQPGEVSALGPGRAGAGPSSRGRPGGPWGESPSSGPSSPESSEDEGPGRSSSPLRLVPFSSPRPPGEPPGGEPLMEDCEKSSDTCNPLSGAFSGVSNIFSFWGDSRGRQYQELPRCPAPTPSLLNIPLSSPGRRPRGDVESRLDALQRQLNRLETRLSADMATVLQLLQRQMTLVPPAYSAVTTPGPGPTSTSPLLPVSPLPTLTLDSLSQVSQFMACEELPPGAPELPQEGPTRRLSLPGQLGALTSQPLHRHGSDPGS
Experimental: The hERG K^+ channels were cloned in humans and stably expressed in a CHO (Chinese hamster ovary) cell line. CHOhERG cells were used for patch-clamp (voltage-clamp, whole-cell) experiments. Cells were stimulated by a voltage pattern to activate hERG channels and conduct IKhERG currents (rapid delayed outward rectifier potassium current of the hERG channel). After the cells were stabilized for a few minutes, the amplitude and kinetics of IKhERG were recorded at a stimulation frequency of 0.1 Hz (6 bpm). Thereafter, the test compound was added to the preparation at increasing concentrations. For each concentration, an attempt was made to reach a steady-state effect, usually, this was achieved within 3-10 min at which time the next highest concentration was applied. The amplitude and kinetics of IKhERG are recorded in each concentration of the drug which were compared to the control values (taken as 100%). (references: Redfern WS, Carlsson L, Davis AS, Lynch WG, MacKenzie I, Palethorpe S, Siegl PK, Strang I, Sullivan AT, Wallis R, Camm AJ, Hammond TG. 2003; Relationships between preclinical cardiac electrophysiology, clinical QT interval prolongation and torsade de pointes for a broad range of drugs: evidence for a provisional safety margin in drug development. Cardiovasc. Res. 58:32-45, Sanguinetti MC, Tristani-Firouzi M. 2006; hERG potassium channels and cardiac arrhythmia. Nature 440:463-469, Webster R, Leishman D, Walker D. 2002; Towards a drug concentration effect relationship for QT prolongation and torsades de pointes. Curr. Opin. Drug Discov. Devel. 5:116-26).
Table 3. hERG and safety ratio results

[2] = Human microsome stability assay; type: in vitro ADME; details: 1 µM test compound, 0.5 mg/mL liver microsomal protein, 37 °C
Experimental: The human microsomal stability assay is used for early assessment of metabolic stability of a test compound in human liver microsomes.
Human liver microsomes (Cat.NO.: 452117, Corning, USA;Cat.NO.:H2610, Xenotech, USA) were preincubated with test compound for 10 minutes at 37 °C in 100 mM potassium phosphate buffer, pH 7.4. The reactions were initiated by adding NADPH regenerating system. The final incubation mixtures contained 1 µM test compound, 0.5 mg/mL liver microsomal protein, 1 mM MgClz, 1 mM NADP, 1 unit/mL isocitric dehydrogenase and 6 mM isocitric acid in 100 mM potassium phosphate buffer, pH 7.4. After incubation times of 0, 3, 6, 9, 15 and 30 minutes at 37 °C, 300 µL of cold acetonitrile (including internal standard) was added to 100 µL incubation mixture to terminate the reaction. Following precipitation and centrifugation, the amount of compound remaining in the samples were determined by LC-MS/MS. Controls of no NADPH regenerating system at zero and 30 minutes were also prepared and analyzed. […] Table 6. Human liver microsome stability of the compounds of present invention

[3] = molecular target: T2, hTLR9 (Homo sapiens, UniProt Q9NR96); set-up: host or cells: HEK; details: data disclosed in US20150105370; read-out: HEK/hTLR9 IC50; cited from earlier work
T2 sequence (Q9NR96 26-1032): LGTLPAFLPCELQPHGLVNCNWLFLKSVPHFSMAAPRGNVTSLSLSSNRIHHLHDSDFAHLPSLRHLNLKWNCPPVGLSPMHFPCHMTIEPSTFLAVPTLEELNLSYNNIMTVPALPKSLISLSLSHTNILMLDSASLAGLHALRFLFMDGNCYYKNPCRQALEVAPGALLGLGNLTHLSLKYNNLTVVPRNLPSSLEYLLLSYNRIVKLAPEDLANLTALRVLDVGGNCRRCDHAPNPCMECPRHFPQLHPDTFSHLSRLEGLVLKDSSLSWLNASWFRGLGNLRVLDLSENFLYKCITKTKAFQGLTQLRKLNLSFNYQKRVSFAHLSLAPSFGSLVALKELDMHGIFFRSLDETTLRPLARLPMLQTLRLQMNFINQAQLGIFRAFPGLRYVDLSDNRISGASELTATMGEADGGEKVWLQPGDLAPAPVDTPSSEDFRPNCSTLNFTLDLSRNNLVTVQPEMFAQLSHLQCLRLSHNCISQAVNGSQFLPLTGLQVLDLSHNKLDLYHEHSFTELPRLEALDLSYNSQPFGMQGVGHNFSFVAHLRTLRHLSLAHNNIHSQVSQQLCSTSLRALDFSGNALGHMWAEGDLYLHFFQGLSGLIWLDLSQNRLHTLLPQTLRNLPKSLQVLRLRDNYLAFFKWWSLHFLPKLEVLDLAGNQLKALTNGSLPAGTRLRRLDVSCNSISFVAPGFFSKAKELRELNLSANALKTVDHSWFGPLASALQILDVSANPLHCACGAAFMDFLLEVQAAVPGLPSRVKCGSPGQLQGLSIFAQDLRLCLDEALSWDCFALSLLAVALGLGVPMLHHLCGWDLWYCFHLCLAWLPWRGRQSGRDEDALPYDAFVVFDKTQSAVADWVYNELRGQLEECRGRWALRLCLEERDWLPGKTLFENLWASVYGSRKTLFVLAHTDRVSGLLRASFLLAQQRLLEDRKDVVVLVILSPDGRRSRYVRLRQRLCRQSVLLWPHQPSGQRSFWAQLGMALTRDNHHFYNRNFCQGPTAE

[4] = molecular target: T3, hTLR7 (Homo sapiens, UniProt Q9NYK1); set-up: host or cells: HEK; details: data disclosed in US20150105370; read-out: HEK/hTLR7 IC50; cited from earlier work
T3 sequence (Q9NYK1 27-1049): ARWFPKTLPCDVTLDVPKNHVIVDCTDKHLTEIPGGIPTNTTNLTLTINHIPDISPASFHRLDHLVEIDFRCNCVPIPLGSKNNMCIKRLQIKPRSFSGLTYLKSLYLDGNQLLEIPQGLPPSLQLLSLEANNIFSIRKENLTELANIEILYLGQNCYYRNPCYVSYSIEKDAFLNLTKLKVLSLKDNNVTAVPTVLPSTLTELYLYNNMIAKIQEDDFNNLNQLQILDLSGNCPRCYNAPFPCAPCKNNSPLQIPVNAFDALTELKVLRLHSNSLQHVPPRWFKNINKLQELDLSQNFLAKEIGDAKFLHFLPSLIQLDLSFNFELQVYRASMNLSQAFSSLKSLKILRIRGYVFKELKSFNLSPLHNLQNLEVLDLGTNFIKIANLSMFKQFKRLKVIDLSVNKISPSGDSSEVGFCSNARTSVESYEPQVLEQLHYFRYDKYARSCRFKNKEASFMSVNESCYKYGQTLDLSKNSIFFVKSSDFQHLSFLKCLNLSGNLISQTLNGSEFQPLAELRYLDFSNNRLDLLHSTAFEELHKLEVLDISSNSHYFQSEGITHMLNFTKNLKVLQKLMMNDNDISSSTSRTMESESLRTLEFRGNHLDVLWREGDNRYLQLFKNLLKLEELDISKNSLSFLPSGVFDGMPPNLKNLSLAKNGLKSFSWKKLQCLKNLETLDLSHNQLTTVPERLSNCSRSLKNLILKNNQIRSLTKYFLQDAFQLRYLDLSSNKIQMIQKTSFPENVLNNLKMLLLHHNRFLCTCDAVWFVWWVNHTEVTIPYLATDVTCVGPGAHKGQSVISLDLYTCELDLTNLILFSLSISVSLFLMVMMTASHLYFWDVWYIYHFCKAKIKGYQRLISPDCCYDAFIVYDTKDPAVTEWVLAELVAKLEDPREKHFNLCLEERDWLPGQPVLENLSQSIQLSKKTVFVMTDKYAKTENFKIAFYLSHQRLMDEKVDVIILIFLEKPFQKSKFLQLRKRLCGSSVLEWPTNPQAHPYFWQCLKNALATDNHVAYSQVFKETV

Clearance of Human microsome [2] [mL/min/kg] | Compound | IC50 [1] [nM] | IC20 [1] [nM] | hERG IC20 / TLR7 IC50 [1] | hERG IC20 / TLR9 IC50 [1] | IC50 [3] [nM] | IC50 [4] [nM]
17.86 | C[C@@H]1CN(c2ccc(C#N)c3ncccc23)C[C@H](CN2CCN(c3ccccc3)CC2)O1 [ER-887258, reference compound] | 2780 | 687 | 8.1 | 0.3 | > 2000 | 85.2
17.15 | C[C@@H]1CN(c2ccc(C#N)c3ncccc23)C[C@H](CN2CCN(c3ccccn3)CC2)O1 [ER-888285, reference compound] | 3110 | 1010 | 8.4 | 0.5 | > 2000 | 120
